EC50 data for 24 compounds are collected here from patent US20230087342A1, “AZEPANE DERIVATIVE” (Nippon Chemiphar Co., Ltd., priority 2019, published 2023).

The test addresses T1, human κ opioid receptors (Homo sapiens, UniProt P41145).
T1 construct: host or cells: CHO cells
The experiment in a line: Opioid receptor function test (Lance Ultra cAMP kit, agonist activity). The class given is cell-based. The note with it: CHO cells expressing human κ opioid receptors, 10 μM forskolin, 30 minutes. In short, it runs like this:
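CHO cells expressing human κ opioid receptor incubated 30 min with test compound (10^−14 to 10^−7 M) and 10 μM forskolin in HSS/5 mM HEPES pH 7.4 with 0.5 mM IBMX and 0.1% SA. cAMP measured by TR-FRET (Lance Ultra) 1 h after detection reagent addition.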

T1 sequence (P41145 whole entry): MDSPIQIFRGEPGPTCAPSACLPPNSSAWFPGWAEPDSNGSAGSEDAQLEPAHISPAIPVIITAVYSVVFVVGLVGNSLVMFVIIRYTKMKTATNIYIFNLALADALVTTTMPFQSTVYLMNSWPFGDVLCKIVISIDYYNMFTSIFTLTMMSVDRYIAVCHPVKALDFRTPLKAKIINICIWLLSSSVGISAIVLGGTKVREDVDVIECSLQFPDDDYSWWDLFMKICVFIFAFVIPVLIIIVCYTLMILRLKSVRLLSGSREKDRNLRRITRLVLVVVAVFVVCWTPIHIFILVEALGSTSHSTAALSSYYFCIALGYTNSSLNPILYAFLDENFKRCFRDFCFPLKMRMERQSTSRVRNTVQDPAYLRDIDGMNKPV

The compound `Cc1ccn(CCN2CC[C@]34CCN(CC5CC5)[C@H](Cc5ccc(O)cc53)[C@]4(O)CC2)c1` [Example 166, (5aS,6R,11bS)-14-(cyclopropylmethyl)-3-(2-(3-methyl-1H-pyrrol-1-yl)ethyl)-2,3,4,5,6,7-hexahydro-6,11b-(epiminoethano)naphtho[1,2-d]azepine-5a,10(1H)-diol] showed a 50% effective concentration (EC50) of 310 pM.
Under `Cc1cnn(CC(=O)N2CC[C@]34CCN(CC5CC5)[C@H](Cc5ccc(O)cc53)[C@]4(O)CC2)c1` [Example 49, 1-((5aS,6R,11bR)-14-(cyclopropylmethyl)-5a,10-dihydroxy-1,2,5,5a,6,7-hexahydro-6,11b-(epiminoethano)naphtho[1,2-d]azepin-3(4H)-yl)-2-(4-methyl-1H-pyrazol-1-yl)ethan-1-one] stands 89 pM; under `Cc1cnn(CCN2CC[C@]34CCN(C[C@@H]5C[C@@H]5F)[C@H](Cc5ccc(O)cc53)[C@]4(O)CC2)c1` [Example 219, (5aS,6R,11bS)-14-(((1S,2S)-2-fluorocyclopropyl)methyl)-3-(2-(4-methyl-1H-pyrazol-1-yl)ethyl)-2,3,4,5,6,7-hexahydro-6,11b-(epiminoethano)naphtho[1,2-d]azepine-5a,10(1H)-diol], 230 pM; under `Oc1ccc2c(c1)[C@@]13CCN(CCn4cc(F)cn4)CC[C@@]1(O)[C@@H](C2)N(CC1CC1)CC3` [Example 184, (5aS,6R,11bS)-14-(cyclopropylmethyl)-3-(2-(4-fluoro-1H-pyrazol-1-yl)ethyl)-2,3,4,5,6,7-hexahydro-6,11b-(epiminoethano)naphtho[1,2-d]azepine-5a,10(1H)-diol], 95 pM.
With `O=C(CCc1ccccn1)N1CC[C@]23CCN(CC4CC4)[C@H](Cc4ccc(O)cc42)[C@]3(O)CC1` [Example 190, 1-((5aS,6R,11bR)-14-(cyclopropylmethyl)-5a,10-dihydroxy-1,2,5,5a,6,7-hexahydro-6,11b-(epiminoethano)naphtho[1,2-d]azepin-3(4H)-yl)-3-(pyridin-2-yl)propan-1-one], the EC50 was determined as 320 pM.
The figure for `Cc1cnn(CCN2CC[C@]34CCN(CC5CC5(F)F)[C@H](Cc5ccc(O)cc53)[C@]4(O)CC2)c1` (stereo partly drawn) [Example 218, (5aS,6R,11bS)-14-((2,2-difluorocyclopropyl)methyl)-3-(2-(4-methyl-1H-pyrazol-1-yl)ethyl)-2,3,4,5,6,7-hexahydro-6,11b-(epiminoethano)naphtho[1,2-d]azepine-5a,10(1H)-diol] is 160 pM.
Turning to `Oc1ccc2c(c1)[C@@]13CCN(CCc4ncccn4)CC[C@@]1(O)[C@@H](C2)N(CC1CC1)CC3` [Example 83, (5aS,6R,11bS)-14-(cyclopropylmethyl)-3-(2-(pyrimidin-2-yl)ethyl)-2,3,4,5,6,7-hexahydro-6,11b-(epiminoethano)naphtho[1,2-d]azepine-5a,10(1H)-diol], the EC50 amounted to 370 pM.
`Cc1cnn([C@H]2CC[C@@H](N3CC[C@]45CCN(CC6CC6)[C@H](Cc6ccc(O)cc64)[C@]5(O)CC3)C2)c1` [Example 236, (5aS,6R,11bS)-14-(cyclopropylmethyl)-3-((1R,3S)-3-(4-methyl-1H-pyrazol-1-yl)cyclopentyl)-2,3,4,5,6,7-hexahydro-6,11b-(epiminoethano)naphtho[1,2-d]azepine-5a,10(1H)-diol] came in with an EC50 of 12 pM.
Compound `Cc1ccnc(CCN2CC[C@]34CCN(CC5CC5)[C@H](Cc5ccc(O)cc53)[C@]4(O)CC2)c1` [Example 105, (5aS,6R,11bS)-14-(cyclopropylmethyl)-3-(2-(4-methylpyridin-2-yl)ethyl)-2,3,4,5,6,7-hexahydro-6,11b-(epiminoethano)naphtho[1,2-d]azepine-5a,10(1H)-diol] came in with an EC50 of 88 pM.
The figure for `Oc1ccc2c(c1)[C@@]13CCN(CCc4cn5ccccc5n4)CC[C@@]1(O)[C@@H](C2)N(CC1CC1)CC3` [Example 116, (5aS,6R,11bS)-14-(cyclopropylmethyl)-3-(2-(imidazo[1,2-a]pyridin-2-yl)ethyl)-2,3,4,5,6,7-hexahydro-6,11b-(epiminoethano)naphtho[1,2-d]azepine-5a,10(1H)-diol] is 21 pM.
Under `Oc1ccc2c(c1)[C@@]13CCN(CCc4ncccc4F)CC[C@@]1(O)[C@@H](C2)N(CC1CC1)CC3` [Example 100, (5aS,6R,11bS)-14-(cyclopropylmethyl)-3-(2-(3-fluoropyridin-2-yl)ethyl)-2,3,4,5,6,7-hexahydro-6,11b-(epiminoethano)naphtho[1,2-d]azepine-5a,10(1H)-diol] stands 260 pM; under `Oc1ccc2c(c1)[C@@]13CCN(CCn4nc(C(F)F)cc4C(F)F)CC[C@@]1(O)[C@@H](C2)N(CC1CC1)CC3` [Example 58, (5aS,6R,11bS)-3-(2-(3,5-bis(difluoromethyl)-1H-pyrazol-1-yl)ethyl)-14-(cyclopropylmethyl)-2,3,4,5,6,7-hexahydro-6,11b-(epiminoethano)naphtho[1,2-d]azepine-5a,10(1H)-diol], 140 pM.
Under `Cc1cnn(C2CC(N3CC[C@]45CCN(CC6CC6)[C@H](Cc6ccc(O)cc64)[C@]5(O)CC3)C2)c1` (single isomer, unassigned) [Example 227 (I)] stands 15 pM.
In turn, `Cc1cc(C)n(CCN2CC[C@]34CCN(CC5CC5)[C@H](Cc5ccc(O)cc53)[C@]4(O)CC2)n1` [Example 56, (5aS,6R,11bS)-14-(cyclopropylmethyl)-3-(2-(3,5-dimethyl-1H-pyrazol-1-yl)ethyl)-2,3,4,5,6,7-hexahydro-6,11b-(epiminoethano)naphtho[1,2-d]azepine-5a,10(1H)-diol] returned a 50% effective concentration (EC50) of 970 pM.
Under `Cc1cc2c(cc1O)[C@@]13CCN(C(=O)CN4CC[C@@H](C)C4)CC[C@@]1(O)[C@@H](C2)N(CC1CC1)CC3` [Example 336, 1-((5aS,6R,11bR)-14-(cyclopropylmethyl)-5a,10-dihydroxy-9-methyl-1,2,5,5a,6,7-hexahydro-6,11b-(epiminoethano)naphtho[1,2-d]azepin-3(4H)-yl)-2-((R)-3-methylpyrrolidin-1-yl)ethan-1-one] stands 180 pM; under `Cc1cn(CC(=O)N2CC[C@]34CCN(CC5CC5)[C@H](Cc5ccc(O)cc53)[C@]4(O)CC2)nc1C(F)(F)F` [Example 163, 1-((5aS,6R,11bR)-14-(cyclopropylmethyl)-5a,10-dihydroxy-1,2,5,5a,6,7-hexahydro-6,11b-(epiminoethano)naphtho[1,2-d]azepin-3(4H)-yl)-2-(4-methyl-3-(trifluoromethyl)-1H-pyrazol-1-yl)ethan-1-one], 76 pM.
Under `Oc1ccc2c(c1)[C@@]13CCN(CCN4CCc5ccccc54)CC[C@@]1(O)[C@@H](C2)N(CC1CC1)CC3` [Example 126, (5aS,6R,11bS)-14-(cyclopropylmethyl)-3-(2-(indolin-1-yl)ethyl)-2,3,4,5,6,7-hexahydro-6,11b-(epiminoethano)naphtho[1,2-d]azepine-5a,10(1H)-diol] stands 740 pM.
Under `Cc1cc2c(cc1O)[C@@]13CCN(C(=O)Cc4cc(C(F)(F)F)ccn4)CC[C@@]1(O)[C@@H](C2)N(CC1CC1)CC3` [Example 355, 1-((5aS,6R,11bR)-14-(cyclopropylmethyl)-5a,10-dihydroxy-9-methyl-1,2,5,5a,6,7-hexahydro-6,11b-(epiminoethano)naphtho[1,2-d]azepin-3(4H)-yl)-2-(4-(trifluoromethyl)pyridin-2-yl)ethan-1-one] stands 110 pM.
`CCC1C[C@@]2(O)[C@H]3Cc4ccc(O)cc4[C@]2(CCN1C(=O)Cc1ccccn1)CCN3CC1CC1` (stereo partly drawn) [Example 347, 1-((5aS,6R,11bR)-14-(cyclopropylmethyl)-4-ethyl-5a,10-dihydroxy-1,2,5,5a,6,7-hexahydro-6,11b-(epiminoethano)naphtho[1,2-d]azepin-3(4H)-yl)-2-(pyridin-2-yl)ethan-1-one]: the EC50 was determined as 120 pM.
Under `Cc1cc(CCC(=O)N2CC[C@]34CCN(CC5CC5)[C@H](Cc5ccc(O)cc53)[C@]4(O)CC2)ns1` [Example 217, 1-((5aS,6R,11bR)-14-(cyclopropylmethyl)-5a,10-dihydroxy-1,2,5,5a,6,7-hexahydro-6,11b-(epiminoethano)naphtho[1,2-d]azepin-3(4H)-yl)-3-(5-methylisothiazol-3-yl)propan-1-one] stands 180 pM; under `Cc1cc(CC(=O)N2CC[C@]34CCN(CC5CC5)[C@H](Cc5ccc(O)cc53)[C@]4(O)CC2)ns1` [Example 168, 1-((5aS,6R,11bR)-14-(cyclopropylmethyl)-5a,10-dihydroxy-1,2,5,5a,6,7-hexahydro-6,11b-(epiminoethano)naphtho[1,2-d]azepin-3(4H)-yl)-2-(5-methylisothiazol-3-yl)ethan-1-one], 47 pM; under `Oc1ccc2c(c1)[C@]13CCN(CC4CC4)[C@H](C2)[C@]1(O)CCCN(CCc1ccccn1)C3` [Example 137, (5aS,6R,11bS)-14-(cyclopropylmethyl)-2-(2-(pyridin-2-yl)ethyl)-2,3,4,5,6,7-hexahydro-6,11b-(epiminoethano)naphtho[1,2-c]azepine-5a,10(1H)-diol], 140 pM.
The compound `C[Si]1(C)CCN(CCN2CC[C@]34CCN(CC5CC5)[C@H](Cc5ccc(O)cc53)[C@]4(O)CC2)CC1` [Example 133, (5aS,6R,11bS)-14-(cyclopropylmethyl)-3-(2-(4,4-dimethyl-1,4-azasilinan-1-yl)ethyl)-2,3,4,5,6,7-hexahydro-6,11b-(epiminoethano)naphtho[1,2-d]azepine-5a,10(1H)-diol] had an EC50 of 33 pM.
The figure for `O=C(CCc1nccs1)N1CC[C@]23CCN(CC4CC4)[C@H](Cc4ccc(O)cc42)[C@]3(O)CC1` [Example 210, 1-((5aS,6R,11bR)-14-(cyclopropylmethyl)-5a,10-dihydroxy-1,2,5,5a,6,7-hexahydro-6,11b-(epiminoethano)naphtho[1,2-d]azepin-3(4H)-yl)-3-(thiazol-2-yl)propan-1-one] is 720 pM.
